{
  "source": "patent US12636295B2",
  "about": "“Compositions and methods for the treatment of obstructive sleep apnoea (OSA)” (Incannex Healthcare Limited, priority 2020, dated 2026)",
  "key": {"subjects with OSA [1]": {"test_system": "subjects with OSA", "test": "Published studies on the effect of single agent acetazolamide on AHI, with linear trend line dose-response", "type": "in vivo, human", "settings": "from linear trend line of published studies", "excerpt": "These studies tested a range of doses across a selection of different patient cohorts."}, "subjects with OSA [2]": {"test_system": "subjects with OSA", "settings": "cited from earlier work; for Reduction in AHI (%): relative to baseline or placebo"}, "[3]": {"settings": "after ingestion; cited from earlier work"}, "subjects with OSA [4]": {"test_system": "subjects with OSA", "test": "Published study (Carley et al. 2018) on the effect of single agent dronabinol on AHI, with trend line dose-response", "type": "in vivo, human", "settings": "from trend line of published data"}},
  "note": "Read-outs that look alike come from different tables or passages of the source.",
  "data": [
    {"smiles": "CC(=O)Nc1nnc(S(N)(=O)=O)s1", "note": "[Acetazolamide, acetazolamide]", "values": [
      {"measurement": "Predicted AHI reduction (%), single agent", "setting": "subjects with OSA [1]; acetazolamide 125 mg", "result": 23.4, "unit": "%"},
      {"measurement": "Predicted AHI reduction (%), single agent", "setting": "subjects with OSA [1]; acetazolamide 250 mg", "result": 27.1, "unit": "%"},
      {"measurement": "Predicted AHI reduction (%), single agent", "setting": "subjects with OSA [1]; acetazolamide 500 mg", "result": 34.5, "unit": "%"},
      {"measurement": "Acetazolamide AHI", "setting": "subjects with OSA [2]; 250 mg/day, Chin, 1992, baseline/placebo AHI 38.9", "result": 29.6},
      {"measurement": "Reduction in AHI (%)", "setting": "subjects with OSA [2]; 250 mg/day, Chin, 1992", "result": 23.9, "unit": "%"},
      {"measurement": "Acetazolamide AHI", "setting": "subjects with OSA [2]; 250 mg/day, Tojima, 1988, baseline/placebo AHI 25", "result": 18.1},
      {"measurement": "Reduction in AHI (%)", "setting": "subjects with OSA [2]; 250 mg/day, Tojima, 1988", "result": 27.6, "unit": "%"},
      {"measurement": "Reduction in AHI (%)", "setting": "subjects with OSA [2]; 351.2 mg/day, Inoue, 1999", "result": 29.5, "unit": "%"},
      {"measurement": "Acetazolamide AHI", "setting": "subjects with OSA [2]; 375 mg/day, Inoue, 1987, baseline/placebo AHI 26.9", "result": 17.3},
      {"measurement": "Reduction in AHI (%)", "setting": "subjects with OSA [2]; 375 mg/day, Inoue, 1987", "result": 35.7, "unit": "%"},
      {"measurement": "Acetazolamide AHI", "setting": "subjects with OSA [2]; 750 mg/day, Eskandari, 2018, baseline/placebo AHI 38", "result": 23},
      {"measurement": "Reduction in AHI (%)", "setting": "subjects with OSA [2]; 750 mg/day, Eskandari, 2018", "result": 39.5, "unit": "%"},
      {"measurement": "Acetazolamide AHI", "setting": "subjects with OSA [2]; 1000 mg/day, Edwards, 2012, baseline/placebo AHI 49.6", "result": 24},
      {"measurement": "Reduction in AHI (%)", "setting": "subjects with OSA [2]; 1000 mg/day, Edwards, 2012", "result": 51.6, "unit": "%"},
      {"measurement": "Acetazolamide AHI", "setting": "subjects with OSA [2]; 1000 mg/day, Whyte, 1988, baseline/placebo AHI 50", "result": 26},
      {"measurement": "Reduction in AHI (%)", "setting": "subjects with OSA [2]; 1000 mg/day, Whyte, 1988", "result": 48, "unit": "%"},
      {"measurement": "Time to mean peak plasma concentrations", "setting": "[3]", "result": "about 2 hours"}
    ]},
    {"smiles": "CCCCCc1cc(O)c2c(c1)OC(C)(C)C1CCC(C)=CC21", "note": "(stereo not drawn) [Dronabinol]", "values": [
      {"measurement": "Predicted AHI reduction (%), single agent", "setting": "subjects with OSA [4]; dronabinol 2.5 mg/day", "result": 23.4, "unit": "%"},
      {"measurement": "Predicted AHI reduction (%), single agent", "setting": "subjects with OSA [4]; dronabinol 5 mg/day", "result": 26.5, "unit": "%"},
      {"measurement": "Time to peak effects", "setting": "[3]", "result": "2 to 4", "unit": "h"},
      {"measurement": "Time to significant concentrations in plasma/blood", "setting": "[3]", "result": "30 to 60", "unit": "min"}
    ]}
  ]
}
